Results published in patent US9662327B2 (AGIOS PHARMACEUTICALS, INC, priority 2011, dated 2017).

Molecular target: IDH1 R132H (Homo sapiens (Human), UniProt O75874, R132H)
Assay: Assays for IDH1 R132H Inhibitors (NADPH/aKG, resazurin detection)
Assay type: biochemical
Settings: IDH1 R132H enzyme, Table 2; read-out: IDHR132H Activity
How it was run: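 Mutant enzyme in 150 mM NaCl, 10 mM MgCl2, 20 mM Tris pH 7.5, 0.03% BSA; compound in DMSO added to substrate mix of 8 uM NADPH and 2 mM aKG. Reaction ran 50 min at room temperature, then resazurin detection mix (30 μM) added for 5 min at room temperature.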

Sequence of IDH1 R132H (O75874 whole entry R132H): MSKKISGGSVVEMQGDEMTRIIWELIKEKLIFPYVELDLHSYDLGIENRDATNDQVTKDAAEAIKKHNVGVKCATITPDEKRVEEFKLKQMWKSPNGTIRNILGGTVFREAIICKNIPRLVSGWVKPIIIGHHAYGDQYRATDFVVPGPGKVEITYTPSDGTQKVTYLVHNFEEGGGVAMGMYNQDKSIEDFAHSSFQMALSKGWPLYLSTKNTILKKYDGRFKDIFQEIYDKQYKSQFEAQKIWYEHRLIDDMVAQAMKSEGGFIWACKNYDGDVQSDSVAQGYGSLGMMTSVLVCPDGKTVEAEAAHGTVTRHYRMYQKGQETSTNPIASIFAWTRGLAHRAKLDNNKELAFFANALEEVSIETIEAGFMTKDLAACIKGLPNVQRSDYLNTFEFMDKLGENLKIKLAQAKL

| SMILES | IC50 |
| --- | --- |
| CC(C)[C@@H]1CN(c2nc(C3CC3)c3c(c2C#N)CC(C)(C)OC3)CCN1C(=O)COc1cccc(F)c1 [Compound 384] | 1 to 10 µM |
| CC(C)[C@@H]1CN(c2nc(C3(C)CC3)c3c(c2C#N)CC(C)(C)OC3)CCN1C(=O)c1ccoc1 [Compound 386] | 1 to 10 µM |
| COC(=O)C1CN(c2nc(C3CC3)c3c(c2C#N)CC(C)(C)OC3)CCN1C(=O)c1ccoc1 (stereo not shown) [Compound 387] | 0.5 to 1 µM |
| COCCC(=O)N1CCN(c2nc(C3CC3)c3c(c2C#N)CC(C)(C)OC3)CC1C(=O)OC (stereo not shown) [Compound 388] | 0.5 to 1 µM |
| COCCC(=O)N1CCN(c2nc(C3CC3)c3c(c2C#N)CC(C)(C)OC3)C[C@@H]1CC(C)C [Compound 389] | 1 to 10 µM |
| CC(C)[C@@H]1CN(c2nc(C3CC3)c3c(c2C#N)CC(C)(C)OC3)CCN1C(=O)COCC1CC1 [Compound 390] | 0.5 to 1 µM |
| CCS(=O)(=O)N1CCN(c2nc(C3CC3)c3c(c2C#N)CC(C)(C)OC3)C[C@H]1C(C)C [Compound 391, (R)-8-cyclopropyl-6-(4-(ethylsulfonyl)-3-isopropylpiperazin-1-yl)-3,3-dimethyl-3,4-dihydro-1H-pyrano[3,4-c]pyridine-5-carbonitrile] | 1 to 10 µM |
| COC(=O)C1CN(c2nc(C(C)C)c3c(c2C#N)CC(C)(C)OC3)CCN1C(=O)c1ccoc1 (stereo not shown) [Compound 393, methyl 4-(5-cyano-8-isopropyl-3,3-dimethyl-3,4-dihydro-1H-pyrano[3,4-c]pyridin-6-yl)-1-(furan-3-carbonyl)piperazine-2-carboxylate] | 0.5 to 1 µM |
| COC(=O)C1CN(c2nc(C3CC3)c3c(c2C#N)CC(C)(C)OC3)CCN1C(=O)c1ccoc1C (stereo not shown) [Compound 394, methyl 4-(5-cyano-8-cyclopropyl-3,3-dimethyl-3,4-dihydro-1H-pyrano[3,4-c]pyridin-6-yl)-1-(2-methylfuran-3-carbonyl)piperazine-2-carboxylate] | 0.5 to 1 µM |
| COCCC(=O)N1CCN(c2nc(C3CCC3)c3c(c2C#N)CC(C)(C)OC3)C[C@H]1C(C)C [Compound 395, (R)-8-cyclobutyl-6-(3-isopropyl-4-(3-methoxypropanoyl)piperazin-1-yl)-3,3-dimethyl-3,4-dihydro-1H-pyrano[3,4-c]pyridine-5-carbonitrile] | < 0.5 µM |
| CC(C)[C@@H]1CN(c2nc(C3CCC3)c3c(c2C#N)CC(C)(C)OC3)CCN1C(=O)C1CC1 [Compound 396, (R)-8-cyclobutyl-6-(4-(cyclopropanecarbonyl)-3-isopropylpiperazin-1-yl)-3,3-dimethyl-3,4-dihydro-1H-pyrano[3,4-c]pyridine-5-carbonitrile] | 0.5 to 1 µM |
| COC(=O)CN1CCN(c2nc(C3CC3)c3c(c2C#N)CC(C)(C)OC3)C[C@H]1C(C)C [Compound 397, (R)-methyl 2-(4-(5-cyano-8-cyclopropyl-3,3-dimethyl-3,4-dihydro-1H-pyrano[3,4-c]pyridin-6-yl)-2-isopropylpiperazin-1-yl)acetate] | 1 to 10 µM |
| CC(C)[C@@H]1CN(c2nc(C3CC3)c3c(c2C#N)CC(C)(C)OC3)CCN1C(=O)NC1CC1 [Compound 398, (R)-4-(5-cyano-8-cyclopropyl-3,3-dimethyl-3,4-dihydro-1H-pyrano[3,4-c]pyridin-6-yl)-N-cyclopropyl-2-isopropylpiperazine-1-carboxamide] | 1 to 10 µM |
| CC(C)[C@@H]1CN(c2nc(C3CC3)c3c(c2C#N)CC(C)(C)OC3)CCN1C(=O)COc1cccnc1 [Compound 399, (R)-8-cyclopropyl-6-(3-isopropyl-4-(2-(pyridin-3-yloxy)acetyl)piperazin-1-yl)-3,3-dimethyl-3,4-dihydro-1H-pyrano[3,4-c]pyridine-5-carbonitrile] | 1 to 10 µM |
| Cc1ccn(CC(=O)N2CCN(c3nc(C4CC4)c4c(c3C#N)CC(C)(C)OC4)C[C@H]2C(C)C)n1 [Compound 400, (R)-8-cyclopropyl-6-(3-isopropyl-4-(2-(3-methyl-1H-pyrazol-1-yl)acetyl)piperazin-1-yl)-3,3-dimethyl-3,4-dihydro-1H-pyrano[3,4-c]pyridine-5-carbonitrile] | 1 to 10 µM |
| Cc1cnn(CC(=O)N2CCN(c3nc(C4CC4)c4c(c3C#N)CC(C)(C)OC4)C[C@H]2C(C)C)c1 [Compound 401, (R)-8-cyclopropyl-6-(3-isopropyl-4-(2-(4-methyl-1H-pyrazol-1-yl)acetyl)piperazin-1-yl)-3,3-dimethyl-3,4-dihydro-1H-pyrano[3,4-c]pyridine-5-carbonitrile] | < 0.5 µM |
| COCC1CN(c2nc(C3CC3)c3c(c2C#N)CC(C)(C)OC3)CCN1C(=O)c1ccoc1 (stereo not shown) [Compound 402, 8-cyclopropyl-6-(4-(furan-3-carbonyl)-3-(methoxymethyl)piperazin-1-yl)-3,3-dimethyl-3,4-dihydro-1H-pyrano[3,4-c]pyridine-5-carbonitrile] | 1 to 10 µM |
| COCCC(=O)N1CCN(c2nc(C3CC3)c3c(c2C#N)CC(C)(C)OC3)CC1COC (stereo not shown) [Compound 403, 8-cyclopropyl-6-(3-(methoxymethyl)-4-(3-methoxypropanoyl)piperazin-1-yl)-3,3-dimethyl-3,4-dihydro-1H-pyrano[3,4-c]pyridine-5-carbonitrile] | 1 to 10 µM |
| CC(C)[C@@H]1CN(c2nc(C3CC3)c3c(c2C#N)CC(C)(C)OC3)CCN1C(=O)COCc1ccco1 [Compound 404, (R)-8-cyclopropyl-6-(4-(2-(furan-2-ylmethoxy)acetyl)-3-isopropylpiperazin-1-yl)-3,3-dimethyl-3,4-dihydro-1H-pyrano[3,4-c]pyridine-5-carbonitrile] | 1 to 10 µM |
| CC(C)[C@@H]1CN(c2nc(C3CC3)c3c(c2C#N)CC(C)(C)OC3)CCN1C(=O)Cn1ncc2ccccc21 [Compound 405, (R)-6-(4-(2-(1H-indazol-1-yl)acetyl)-3-isopropylpiperazin-1-yl)-8-cyclopropyl-3,3-dimethyl-3,4-dihydro-1H-pyrano[3,4-c]pyridine-5-carbonitrile] | 1 to 10 µM |
| CC(C)[C@@H]1CN(c2nc(C3CC3)c3c(c2C#N)CC(C)(C)OC3)CCN1C(=O)Cn1ccc2ccccc21 [Compound 406, (R)-6-(4-(2-(1H-indol-1-yl)acetyl)-3-isopropylpiperazin-1-yl)-8-cyclopropyl-3,3-dimethyl-3,4-dihydro-1H-pyrano[3,4-c]pyridine-5-carbonitrile] | 1 to 10 µM |
| CC(C)[C@@H]1CN(c2nc(C3CC3)c3c(c2C#N)CC(C)(C)OC3)CCN1C(=O)Cn1nccn1 [Compound 407, (R)-6-(4-(2-(2H-1,2,3-triazol-2-yl)acetyl)-3-isopropylpiperazin-1-yl)-8-cyclopropyl-3,3-dimethyl-3,4-dihydro-1H-pyrano[3,4-c]pyridine-5-carbonitrile] | 0.5 to 1 µM |
| CC(C)[C@@H]1CN(c2nc(C3CC3)c3c(c2C#N)CC(C)(C)OC3)CCN1C(=O)Cn1ccnn1 [Compound 408, (R)-6-(4-(2-(1H-1,2,3-triazol-1-yl)acetyl)-3-isopropylpiperazin-1-yl)-8-cyclopropyl-3,3-dimethyl-3,4-dihydro-1H-pyrano[3,4-c]pyridine-5-carbonitrile] | 1 to 10 µM |
| COC(=O)CC(=O)N1CCN(c2nc(C3CC3)c3c(c2C#N)CC(C)(C)OC3)C[C@H]1C(C)C [Compound 409, (R)-methyl 3-(4-(5-cyano-8-cyclopropyl-3,3-dimethyl-3,4-dihydro-1H-pyrano[3,4-c]pyridin-6-yl)-2-isopropylpiperazin-1-yl)-3-oxopropanoate] | < 0.5 µM |
| CCOC(=O)[C@H]1CN(c2nc(C(C)C)c3c(c2C#N)CC(C)(C)OC3)CCN1C(=O)c1ccoc1 [Compound 410] | 0.5 to 1 µM |
